In publication PMC8550792, “Evolution of kinase polypharmacology across HSP90 drug discovery” (Cell Chemical Biology, 2021):

Experiments:
Experiment in all cases: biochemical
Format in all cases: biochemical
382 unique human kinases [1] = target: T1, 382 unique human kinases (Homo sapiens, UniProt P08581, Y1230D); settings: c-MET (Y1230D), compound at 10 uM, duplicate values; for remaining activity at 10 µM: read-out: % Enzyme Activity (relative to DMSO controls)
T1 construct: purchased Reaction Biology (HotSpot contract assay)

382 unique human kinases [2] = target: T2, 382 unique human kinases (Homo sapiens, UniProt Q15303); settings: kinase ERBB4/HER4, compound 10 uM; for remaining activity at 10 µM: read-out: % Enzyme Activity (relative to DMSO controls)
T2 construct: purchased Reaction Biology (HotSpot contract assay)

382 unique human kinases [3] = target: T3, 382 unique human kinases (Homo sapiens, UniProt Q04912); settings: RON/MST1R, 10 uM; for remaining activity at 10 µM: read-out: % Enzyme Activity (relative to DMSO controls)
T3 construct: purchased Reaction Biology (HotSpot contract assay)

382 unique human kinases [4] = target: T4, 382 unique human kinases (Homo sapiens, UniProt Q8N568); settings: DCAMKL2, 10 uM; for remaining activity at 10 µM: read-out: % Enzyme Activity (relative to DMSO controls)
T4 construct: purchased Reaction Biology (HotSpot contract assay)

382 unique human kinases [5] = target: T5, 382 unique human kinases (Homo sapiens, UniProt P08631); settings: HCK, [ATP] 30 µM
T5 construct: purchased Reaction Biology (HotSpot contract assay)

382 unique human kinases [6] = target: T6, 382 unique human kinases (Homo sapiens, UniProt Q06187, C481S); settings: BTK (C481S), [ATP] 15 µM, compound 10 uM; for remaining activity at 10 µM: read-out: % Enzyme Activity (relative to DMSO controls)
T6 construct: purchased Reaction Biology (HotSpot contract assay)

382 unique human kinases [7] = target: T7, 382 unique human kinases (Homo sapiens, UniProt P51956); settings: NEK3, 10 uM; for remaining activity at 10 µM: read-out: % Enzyme Activity (relative to DMSO controls)
T7 construct: purchased Reaction Biology (HotSpot contract assay)
T7 sequence (P51956 1-506): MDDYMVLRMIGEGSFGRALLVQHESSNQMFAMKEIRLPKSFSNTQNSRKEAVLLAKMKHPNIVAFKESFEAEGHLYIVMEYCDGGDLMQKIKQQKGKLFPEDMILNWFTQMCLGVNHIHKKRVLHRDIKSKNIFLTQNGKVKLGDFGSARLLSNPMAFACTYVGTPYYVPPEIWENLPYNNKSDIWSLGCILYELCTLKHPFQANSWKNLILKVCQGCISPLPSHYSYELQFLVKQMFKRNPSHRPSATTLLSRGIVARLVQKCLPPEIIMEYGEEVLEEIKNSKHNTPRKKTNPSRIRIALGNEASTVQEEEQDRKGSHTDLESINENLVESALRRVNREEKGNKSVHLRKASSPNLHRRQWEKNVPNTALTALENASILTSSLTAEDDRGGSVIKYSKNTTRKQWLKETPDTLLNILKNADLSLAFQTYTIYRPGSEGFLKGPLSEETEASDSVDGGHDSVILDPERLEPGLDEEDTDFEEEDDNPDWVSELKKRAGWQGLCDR

382 unique human kinases [8] = target: T8, 382 unique human kinases (Homo sapiens, UniProt Q5S007); settings: LRRK2, [ATP] 30 µM, compound 10 uM; for remaining activity at 10 µM: read-out: % Enzyme Activity (relative to DMSO controls)
T8 construct: purchased Reaction Biology (HotSpot contract assay)

382 unique human kinases [9] = target: T9, 382 unique human kinases (Homo sapiens, UniProt Q9UL54); settings: TAOK2/TAO1, [ATP] 30 µM, compound 10 uM; for remaining activity at 10 µM: read-out: % Enzyme Activity (relative to DMSO controls)
T9 construct: purchased Reaction Biology (HotSpot contract assay)
T9 sequence (Q9UL54 1-1235): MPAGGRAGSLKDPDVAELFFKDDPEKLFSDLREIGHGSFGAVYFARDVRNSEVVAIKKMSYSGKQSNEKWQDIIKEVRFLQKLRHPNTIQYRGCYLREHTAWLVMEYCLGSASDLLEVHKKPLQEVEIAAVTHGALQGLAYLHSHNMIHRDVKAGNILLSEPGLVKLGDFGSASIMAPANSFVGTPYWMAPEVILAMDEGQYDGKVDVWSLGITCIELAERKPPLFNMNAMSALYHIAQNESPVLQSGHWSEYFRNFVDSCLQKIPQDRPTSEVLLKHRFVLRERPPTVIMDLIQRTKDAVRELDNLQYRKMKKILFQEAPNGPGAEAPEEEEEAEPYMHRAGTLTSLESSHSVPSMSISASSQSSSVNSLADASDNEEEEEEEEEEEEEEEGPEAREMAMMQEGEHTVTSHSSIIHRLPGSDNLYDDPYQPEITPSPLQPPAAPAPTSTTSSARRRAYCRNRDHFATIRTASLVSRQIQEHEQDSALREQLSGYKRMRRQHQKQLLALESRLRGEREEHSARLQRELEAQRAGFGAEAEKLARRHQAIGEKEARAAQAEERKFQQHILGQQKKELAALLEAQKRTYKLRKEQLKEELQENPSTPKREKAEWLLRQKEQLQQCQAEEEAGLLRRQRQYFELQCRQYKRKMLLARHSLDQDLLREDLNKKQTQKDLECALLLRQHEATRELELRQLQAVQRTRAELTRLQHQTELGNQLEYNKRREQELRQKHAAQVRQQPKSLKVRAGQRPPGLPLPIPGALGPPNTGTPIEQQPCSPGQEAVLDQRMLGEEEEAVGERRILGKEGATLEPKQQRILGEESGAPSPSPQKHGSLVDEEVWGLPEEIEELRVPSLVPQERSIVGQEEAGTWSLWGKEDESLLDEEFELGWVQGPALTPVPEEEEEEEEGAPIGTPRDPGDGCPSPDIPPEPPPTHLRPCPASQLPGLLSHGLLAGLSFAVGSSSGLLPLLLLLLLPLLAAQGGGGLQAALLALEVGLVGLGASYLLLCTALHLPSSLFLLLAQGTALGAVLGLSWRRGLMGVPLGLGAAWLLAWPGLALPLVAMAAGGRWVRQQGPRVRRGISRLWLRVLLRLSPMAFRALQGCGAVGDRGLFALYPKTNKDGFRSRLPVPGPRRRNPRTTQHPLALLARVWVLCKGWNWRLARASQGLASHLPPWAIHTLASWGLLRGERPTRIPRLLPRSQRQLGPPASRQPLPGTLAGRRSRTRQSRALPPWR

[10] = compound 10 uM, read-out: % Enzyme Activity (relative to DMSO controls)

T6 sequence (Q06187 whole entry C481S): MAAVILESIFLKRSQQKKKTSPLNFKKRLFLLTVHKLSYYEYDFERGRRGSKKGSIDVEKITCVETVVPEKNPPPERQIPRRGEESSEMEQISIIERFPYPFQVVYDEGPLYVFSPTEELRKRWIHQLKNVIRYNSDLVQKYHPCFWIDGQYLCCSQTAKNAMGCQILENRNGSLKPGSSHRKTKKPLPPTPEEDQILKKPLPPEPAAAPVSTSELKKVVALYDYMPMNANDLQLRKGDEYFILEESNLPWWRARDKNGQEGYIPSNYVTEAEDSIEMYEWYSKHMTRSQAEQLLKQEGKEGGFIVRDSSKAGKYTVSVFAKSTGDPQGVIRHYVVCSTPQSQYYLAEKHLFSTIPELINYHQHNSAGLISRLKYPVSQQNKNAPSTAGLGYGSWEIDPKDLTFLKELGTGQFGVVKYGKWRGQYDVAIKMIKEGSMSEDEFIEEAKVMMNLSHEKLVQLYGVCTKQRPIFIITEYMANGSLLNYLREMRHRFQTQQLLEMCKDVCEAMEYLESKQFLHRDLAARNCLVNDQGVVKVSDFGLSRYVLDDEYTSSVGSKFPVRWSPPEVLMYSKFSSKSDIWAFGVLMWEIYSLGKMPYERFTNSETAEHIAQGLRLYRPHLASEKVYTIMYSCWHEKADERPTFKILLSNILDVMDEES
T2 sequence (Q15303 26-1308): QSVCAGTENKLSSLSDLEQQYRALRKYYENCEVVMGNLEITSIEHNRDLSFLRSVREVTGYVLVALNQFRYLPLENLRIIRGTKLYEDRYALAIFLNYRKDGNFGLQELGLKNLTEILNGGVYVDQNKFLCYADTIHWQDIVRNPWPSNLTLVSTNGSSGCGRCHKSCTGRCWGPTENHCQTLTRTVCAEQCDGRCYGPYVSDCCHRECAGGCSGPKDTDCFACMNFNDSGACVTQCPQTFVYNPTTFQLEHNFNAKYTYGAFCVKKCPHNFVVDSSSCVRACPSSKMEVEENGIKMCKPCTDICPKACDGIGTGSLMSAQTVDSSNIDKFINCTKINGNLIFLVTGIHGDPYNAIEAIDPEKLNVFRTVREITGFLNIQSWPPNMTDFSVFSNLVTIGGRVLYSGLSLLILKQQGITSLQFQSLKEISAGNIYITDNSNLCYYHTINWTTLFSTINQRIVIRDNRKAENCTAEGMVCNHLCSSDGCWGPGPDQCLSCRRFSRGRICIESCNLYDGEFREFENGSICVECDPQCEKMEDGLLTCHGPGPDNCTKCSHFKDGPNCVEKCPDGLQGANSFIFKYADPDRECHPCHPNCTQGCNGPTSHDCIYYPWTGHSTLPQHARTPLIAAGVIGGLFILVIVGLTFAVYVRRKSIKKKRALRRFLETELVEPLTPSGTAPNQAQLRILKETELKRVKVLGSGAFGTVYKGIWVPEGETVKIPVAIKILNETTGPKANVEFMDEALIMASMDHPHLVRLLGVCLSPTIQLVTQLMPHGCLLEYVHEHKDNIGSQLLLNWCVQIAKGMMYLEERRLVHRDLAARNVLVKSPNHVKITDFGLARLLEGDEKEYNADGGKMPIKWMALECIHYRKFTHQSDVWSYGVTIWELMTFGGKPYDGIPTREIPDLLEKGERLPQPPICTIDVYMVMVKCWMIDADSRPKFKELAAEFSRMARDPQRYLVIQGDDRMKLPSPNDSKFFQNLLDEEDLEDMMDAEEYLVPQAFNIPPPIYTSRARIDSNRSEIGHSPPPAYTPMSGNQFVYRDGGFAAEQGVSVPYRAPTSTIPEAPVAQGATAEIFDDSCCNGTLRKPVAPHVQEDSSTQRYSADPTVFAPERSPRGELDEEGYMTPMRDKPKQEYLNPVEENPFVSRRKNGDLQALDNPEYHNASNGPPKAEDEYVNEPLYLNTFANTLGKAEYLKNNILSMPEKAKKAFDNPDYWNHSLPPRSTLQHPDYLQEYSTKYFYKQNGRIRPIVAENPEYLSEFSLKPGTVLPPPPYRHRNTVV
T4 sequence (Q8N568 whole entry): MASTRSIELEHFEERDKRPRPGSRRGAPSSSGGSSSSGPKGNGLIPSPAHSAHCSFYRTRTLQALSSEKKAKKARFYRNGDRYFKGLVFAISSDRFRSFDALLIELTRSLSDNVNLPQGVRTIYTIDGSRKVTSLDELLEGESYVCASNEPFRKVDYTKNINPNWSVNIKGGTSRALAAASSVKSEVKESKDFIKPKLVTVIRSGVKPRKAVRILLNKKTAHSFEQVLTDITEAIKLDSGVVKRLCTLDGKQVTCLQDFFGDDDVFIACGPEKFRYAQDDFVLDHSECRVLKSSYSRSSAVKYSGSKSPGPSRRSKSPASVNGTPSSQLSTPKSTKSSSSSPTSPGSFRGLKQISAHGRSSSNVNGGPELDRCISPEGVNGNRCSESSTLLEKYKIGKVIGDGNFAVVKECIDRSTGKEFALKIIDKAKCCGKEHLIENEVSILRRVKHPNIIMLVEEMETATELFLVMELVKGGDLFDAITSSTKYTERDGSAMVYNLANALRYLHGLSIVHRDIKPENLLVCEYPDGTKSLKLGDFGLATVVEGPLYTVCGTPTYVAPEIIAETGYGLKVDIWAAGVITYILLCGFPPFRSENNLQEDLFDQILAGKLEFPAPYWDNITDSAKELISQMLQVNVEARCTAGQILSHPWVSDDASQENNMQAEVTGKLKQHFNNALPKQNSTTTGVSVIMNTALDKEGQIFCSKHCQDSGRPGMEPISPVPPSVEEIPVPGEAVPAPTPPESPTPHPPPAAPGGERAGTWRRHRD
T5 sequence (P08631 whole entry): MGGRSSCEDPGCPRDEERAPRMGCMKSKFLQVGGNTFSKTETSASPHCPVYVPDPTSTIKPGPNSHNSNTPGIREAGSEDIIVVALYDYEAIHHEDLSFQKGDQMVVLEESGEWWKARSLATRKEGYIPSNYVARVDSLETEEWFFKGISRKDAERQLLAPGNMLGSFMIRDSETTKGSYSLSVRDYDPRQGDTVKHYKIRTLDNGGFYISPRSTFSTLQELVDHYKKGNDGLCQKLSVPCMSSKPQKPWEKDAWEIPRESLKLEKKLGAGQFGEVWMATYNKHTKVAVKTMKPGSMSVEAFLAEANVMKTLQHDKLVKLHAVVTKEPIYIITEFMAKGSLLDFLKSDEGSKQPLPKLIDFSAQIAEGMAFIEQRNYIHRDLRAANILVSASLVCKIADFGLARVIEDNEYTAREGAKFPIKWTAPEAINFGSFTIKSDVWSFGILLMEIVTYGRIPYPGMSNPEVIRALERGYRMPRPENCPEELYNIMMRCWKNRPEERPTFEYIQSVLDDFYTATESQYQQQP
T3 sequence (Q04912 25-1400): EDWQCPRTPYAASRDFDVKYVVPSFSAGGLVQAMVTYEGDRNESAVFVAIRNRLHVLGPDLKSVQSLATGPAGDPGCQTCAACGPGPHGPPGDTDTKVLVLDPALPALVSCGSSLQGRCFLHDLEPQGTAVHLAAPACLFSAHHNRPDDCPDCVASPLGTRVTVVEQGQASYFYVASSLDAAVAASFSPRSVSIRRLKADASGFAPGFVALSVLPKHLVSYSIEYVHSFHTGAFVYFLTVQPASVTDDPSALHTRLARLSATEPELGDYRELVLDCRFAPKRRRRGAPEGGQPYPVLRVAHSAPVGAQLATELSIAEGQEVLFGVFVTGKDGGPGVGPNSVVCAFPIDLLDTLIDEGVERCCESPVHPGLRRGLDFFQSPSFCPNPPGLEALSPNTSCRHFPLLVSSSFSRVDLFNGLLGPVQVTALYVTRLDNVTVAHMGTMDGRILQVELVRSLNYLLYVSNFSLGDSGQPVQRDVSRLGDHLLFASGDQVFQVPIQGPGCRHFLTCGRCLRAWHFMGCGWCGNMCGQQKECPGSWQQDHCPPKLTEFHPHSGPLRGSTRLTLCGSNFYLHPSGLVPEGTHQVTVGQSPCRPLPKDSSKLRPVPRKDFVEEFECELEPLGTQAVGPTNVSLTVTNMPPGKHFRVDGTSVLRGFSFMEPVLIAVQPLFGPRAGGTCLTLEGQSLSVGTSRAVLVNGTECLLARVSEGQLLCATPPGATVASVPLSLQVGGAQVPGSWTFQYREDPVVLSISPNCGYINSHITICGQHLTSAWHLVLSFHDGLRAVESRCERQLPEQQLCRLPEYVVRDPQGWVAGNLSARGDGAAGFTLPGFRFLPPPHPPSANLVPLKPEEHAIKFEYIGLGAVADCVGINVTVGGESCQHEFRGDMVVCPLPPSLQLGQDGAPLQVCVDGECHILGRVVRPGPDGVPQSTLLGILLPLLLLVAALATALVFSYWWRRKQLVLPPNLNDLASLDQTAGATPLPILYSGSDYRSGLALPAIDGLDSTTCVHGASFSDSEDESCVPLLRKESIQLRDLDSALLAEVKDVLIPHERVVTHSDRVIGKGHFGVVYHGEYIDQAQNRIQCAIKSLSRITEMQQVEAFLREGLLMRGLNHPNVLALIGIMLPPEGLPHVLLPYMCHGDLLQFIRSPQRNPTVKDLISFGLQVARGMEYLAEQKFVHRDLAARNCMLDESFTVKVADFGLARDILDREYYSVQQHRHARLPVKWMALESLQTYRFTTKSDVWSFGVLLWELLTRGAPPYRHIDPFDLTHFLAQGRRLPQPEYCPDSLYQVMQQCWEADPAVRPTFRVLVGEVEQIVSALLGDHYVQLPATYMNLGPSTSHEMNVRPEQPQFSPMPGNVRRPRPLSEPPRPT

| Structure (SMILES) | remaining activity at 10 µM (382 unique human kinases [1]) | remaining activity at 10 µM (382 unique human kinases [2]) | remaining activity at 10 µM (382 unique human kinases [3]) | remaining activity at 10 µM (382 unique human kinases [4]) | remaining activity at 1 µM (382 unique human kinases [5]; compound 1 uM, read-out: % Enzyme Activity (relative to DMSO controls)) | remaining activity at 10 µM (382 unique human kinases [5]; [10]) | remaining activity at 10 µM (382 unique human kinases [6]) | remaining activity at 10 µM (382 unique human kinases [7]) | remaining activity at 10 µM (382 unique human kinases [8]) | remaining activity at 10 µM (382 unique human kinases [9]) | % Enzyme Activity (relative to DMSO controls) (382 unique human kinases [1]) | % Enzyme Activity (relative to DMSO controls) (382 unique human kinases [2]) | % Enzyme Activity (relative to DMSO controls) (382 unique human kinases [3]) | % Enzyme Activity (relative to DMSO controls) (382 unique human kinases [4]) | % Enzyme Activity (relative to DMSO controls) (382 unique human kinases [5]; compound 10 uM) | % Enzyme Activity (relative to DMSO controls) (382 unique human kinases [6]) | % Enzyme Activity (relative to DMSO controls) (382 unique human kinases [7]) | % Enzyme Activity (relative to DMSO controls) (382 unique human kinases [8]) | % Enzyme Activity (relative to DMSO controls) (382 unique human kinases [9]) |
| --- | --- | --- | --- | --- | --- | --- | --- | --- | --- | --- | --- | --- | --- | --- | --- | --- | --- | --- | --- |
| CC(C)c1cc(-c2n[nH]c(=O)n2-c2ccc3c(ccn3C)c2)c(O)cc1O [Ganetespib (STA9090)] | 109% | 88.8% | – | – | – | – | – | – | – | – | – | – | – | – | – | – | – | – | – |
| CC(C)c1cc(-c2n[nH]c(=O)n2-c2ccc3c(ccn3C)c2)c(O)cc1O [Ganetespib] | – | – | 106% | 96.7% | 77.7% | 14.5% | 65% | 117% | 45.9% | 58.9% | – | – | – | – | – | – | – | – | – |
| CCNC(=O)c1noc(-c2cc(C(C)C)c(O)cc2O)c1-c1ccc(CN2CCOCC2)cc1 [Luminespib (AUY-922)] | 110% | 92.8% | – | – | – | – | – | – | – | – | 109.18% | 92.70% | – | – | – | – | – | – | – |
| CCNC(=O)c1noc(-c2cc(C(C)C)c(O)cc2O)c1-c1ccc(CN2CCOCC2)cc1 [Luminespib] | – | – | 100% | 97.8% | – | 97.2% | 43.2% | 91.5% | 94.8% | 96% | – | – | 94.46% | 96.30% | 95.21% | 41.81% | 90.60% | 94.05% | 95.89% |
